Test results: paper PMC4721923 (PLoS ONE, 2015)

Key:
Assay type in all cases: cell-based, human
[1] = system: Jurkat cells (acute T-cell leukemia); assay: Chemosensitivity assay (MTT-assay), Jurkat; conditions: Homo sapiens, 96 h, 96 hours of incubation, mean ± SEM
Method: (§1) Depending on the characteristics of the cells, two different assays were performed. For adherently growing cells (HaCaT, HT-29, NCI-H460, SK-MEL-3, MG-63, Capan-1), cytotoxic and cytocidal effects were determined in the crystal violet assay, whereas for loosely adherent cells (LNCaP, SK-ES-1) and cells growing in suspension (HEL 92.1.7, Jurkat, U-937) the MTT-assay was used with minor modifications. In brief, 1.5 · 10^3 (HaCaT, HT-29, NCI-H460, SK-MEL-3, MG-63, Capan-1) or 5 · 10^3 (Jurkat, U-937, HEL92.1.7, LNCaP, SK-ES-1) cells per well were seeded into flat-bottom 96-well plates (Sarstedt, Nümbrecht, Germany). All compounds were used as solutions prepared in DMSO and tested at final concentrations (8 replicates per concentration) of 1, 3, 10, 30 and 50 μM. In case of the vehicle control and test compounds, the final DMSO concentration amounted to 0.1%. Absorbance was measured at 580 nm in a 96-well plate reader (GENios pro microplate reader, Tecan, Salzburg, Austria). Effects were quantified as previously described for both assays.

[2] = system: SK-MEL-3 cells (malignant melanoma); assay: Chemosensitivity assay (crystal violet assay), SK-MEL-3; conditions: Homo sapiens, SK-MEL3, 96 hours of incubation, mean ± SEM, read-out: IC50
Method: as §1

[3] = system: NCI-H460 cells (large cell lung cancer); assay: Chemosensitivity assay (crystal violet assay), NCI-H460; conditions: Homo sapiens, 96 hours of incubation, mean ± SEM, read-out: IC50
Method: as §1

[4] = system: HT-29 cells (colorectal adenocarcinoma); assay: Chemosensitivity assay (crystal violet assay), HT-29; conditions: Homo sapiens, 96 hours of incubation, mean ± SEM, read-out: IC50
Method: as §1

[5] = system: LNCaP cells (prostate cancer); assay: Chemosensitivity assay (MTT-assay), LNCaP; conditions: Homo sapiens, 96 hours of incubation, mean ± SEM, read-out: IC50
Method: as §1

[6] = system: SK-ES-1 cells (Ewing's sarcoma); assay: Chemosensitivity assay (MTT-assay), SK-ES-1; conditions: 96 hours of incubation, mean ± SEM
Method: as §1

[7] = system: Capan-1 cells (pancreatic adenocarcinoma); assay: Chemosensitivity assay (crystal violet assay), Capan-1; conditions: Homo sapiens, CAPAN-1, 96 h, 96 hours of incubation, mean ± SEM
Method: as §1

[8] = system: MG-63 cells (osteosarcoma); assay: Chemosensitivity assay (crystal violet assay), MG-63; conditions: Homo sapiens, MG-63, 96 h, 96 hours of incubation, crystal violet assay, mean ± SEM
Method: as §1

[9] = system: U-937 cells (histiocytic lymphoma); assay: Chemosensitivity assay (MTT-assay), U-937; conditions: Homo sapiens, U-937, 96 h, 96 hours of incubation, mean ± SEM
Method: as §1

[10] = system: HEL 92.1.7 cells (erythroleukemia); assay: Chemosensitivity assay (MTT-assay), HEL 92.1.7; conditions: Homo sapiens, HEL 92.1.7, 96 h, 96 hours of incubation, mean ± SEM
Method: as §1

[11] = substrate: CN(C)c1ccc(/C=C/c2cc[n+](C)cc2)cc1; assay: Michaelis-Menten kinetics of ASP+ uptake, HEK-OCT1; conditions: other: HEK-OCT1; substrate uptake, flow cytometry; 37.0 °C
Method: (§2) The previously described fluorescent substrate of organic cation transporters, 4-(4-dimethylaminostyryl)-N-methylpyridinium (ASP^+), was used to determine the function of OCT1 and OCT3 by flow cytometry in the absence and the presence of bendamustine and selected bendamustine esters. HEK293 cells expressing the transporter of interest were trypsinized and washed twice with PBS, prior to re-suspension of 0.5 · 10^6 cells in 500 μL of PBS containing 2% (v/v) FCS. The cells were incubated with ASP^+ (100 μM stock solution in PBS containing 10% DMSO) for 5 minutes, allowing for cellular accumulation, and subsequently analyzed with a FACSCalibur flow cytometer. ASP^+ was excited at 488 nm and the fluorescence was measured using a 530/30 nm and a 585/42 band-pass filter. At least 1 · 10^4 single cells were analyzed by appropriate FSC/SSC gating.
(§3) Subsequently, two volumes of an ice-cold 200 μM solution of the standard inhibitor of OCT1 and OCT3, tetrapentyl ammonium (TPA), in PBS/FCS were added to one volume of cell suspension. The mixture was immediately analyzed. The mean fluorescence intensities (MFI) were calculated using FlowJo V10, and the difference between total (HEK-OCT1 or HEK-OCT3 cells) and unspecific (HEK-Co cells) uptake was plotted as specific uptake against the concentration of ASP^+. […] Km was calculated according to the Michaelis-Menten equation using GraphPad Prism 5.01.

[12] = substrate: CN(C)c1ccc(/C=C/c2cc[n+](C)cc2)cc1; assay: Michaelis-Menten kinetics of ASP+ uptake, HEK-OCT3; conditions: other: HEK-OCT3; substrate uptake, flow cytometry; 37.0 °C
Method: as §2, §3

CN1CCN(CCOC(=O)CCCc2nc3cc(N(CCCl)CCCl)ccc3n2C)CC1 [Compound 7]
IC50 [1]: 900 ± 30 nM
IC50 [2]: 1000 ± 270 nM
IC50 [3]: 1200 ± 100 nM
IC50 [4]: 2400 ± 100 nM
IC50 [5]: 930 ± 120 nM
IC50 ([6]; Homo sapiens, SK-ES1, 96 h): 190 ± 30 nM
IC50 [7]: 250 ± 20 nM
IC50 [8]: 550 ± 10 nM
IC50 [9]: 1300 ± 300 nM
IC50 [10]: 1700 ± 100 nM

CCOC(=O)CCCc1nc2cc(N(CCCl)CCCl)ccc2n1C [Compound 3]
IC50 [1]: 3800 ± 40 nM
IC50 [2]: 21700 ± 4100 nM
IC50 [3]: 4800 ± 100 nM
IC50 [4]: 10000 ± 100 nM
IC50 [5]: 1500 ± 100 nM
IC50 [6]: 180 ± 10 nM
IC50 ([6]; Homo sapiens, SK-ES1, 96 h): ~200 nM
IC50 [7]: 1000 ± 10 nM
IC50 [8]: 2100 ± 60 nM
IC50 [9]: 1900 ± 10 nM
IC50 [10]: 2900 ± 200 nM

Cn1c(CCCC(=O)OCCN2CCCCC2)nc2cc(N(CCCl)CCCl)ccc21 [Compound 6]
IC50 [1]: 830 ± 10 nM
IC50 [2]: 1240 ± 100 nM
IC50 [3]: 1200 ± 100 nM
IC50 [4]: 1700 ± 100 nM
IC50 [5]: 750 ± 30 nM
IC50 ([6]; Homo sapiens, SK-ES1, 96 h): 190 ± 10 nM
IC50 [7]: 170 ± 10 nM
IC50 [8]: 530 ± 10 nM
IC50 [9]: 1100 ± 200 nM
IC50 [10]: 1300 ± 100 nM

B1: human OCT1 (Homo sapiens) (protein)
chain: MPTVDDILEQVGESGWFQKQAFLILCLLSAAFAPICVGIVFLGFTPDHHCQSPGVAELSQRCGWSPAEELNYTVPGLGPAGEAFLGQCRRYEVDWNQSALSCVDPLASLATNRSHLPLGPCQDGWVYDTPGSSIVTEFNLVCADSWKLDLFQSCLNAGFLFGSLGVGYFADRFGRKLCLLGTVLVNAVSGVLMAFSPNYMSMLLFRLLQGLVSKGNWMAGYTLITEFVGSGSRRTVAIMYQMAFTVGLVALTGLAYALPHWRWLQLAVSLPTFLFLLYYWCVPESPRWLLSQKRNTEAIKIMDHIAQKNGKLPPADLKMLSLEEDVTEKLSPSFADLFRTPRLRKRTFILMYLWFTDSVLYQGLILHMGATSGNLYLDFLYSALVEIPGAFIALITIDRVGRIYPMAMSNLLAGAACLVMIFISPDLHWLNIIIMCVGRMGITIAIQMICLVNAELYPTFVRNLGVMVCSSLCDIGGIITPFIVFRLREVWQALPLILFAVLGLLAAGVTLLLPETKGVALPETMKDAENLGRKAKPKENTIYLKVQTSEPSGT
notes: containing the full length SLC22A1 cDNA (NM_003057) encoding the human OCT1 protein; expressed in transfected cells
Km [11]: 3.1 ± 0.1 µM

B2: OCT3 (Homo sapiens) (protein)
chain: MPSFDEALQRVGEFGRFQRRVFLLLCLTGVTFAFLFVGVVFLGTQPDHYWCRGPSAAALAERCGWSPEEEWNRTAPASRGPEPPERRGRCQRYLLEAANDSASATSALSCADPLAAFPNRSAPLVPCRGGWRYAQAHSTIVSEFDLVCVNAWMLDLTQAILNLGFLTGAFTLGYAADRYGRIVIYLLSCLGVGVTGVVVAFAPNFPVFVIFRFLQGVFGKGTWMTCYVIVTEIVGSKQRRIVGIVIQMFFTLGIIILPGIAYFIPNWQGIQLAITLPSFLFLLYYWVVPESPRWLITRKKGDKALQILRRIAKCNGKYLSSNYSEITVTDEEVSNPSFLDLVRTPQMRKCTLILMFAWFTSAVVYQGLVMRLGIIGGNLYIDFFISGVVELPGALLILLTIERLGRRLPFAASNIVAGVACLVTAFLPEGIAWLRTTVATLGRLGITMAFEIVYLVNSELYPTTLRNFGVSLCSGLCDFGGIIAPFLLFRLAAVWLELPLIIFGILASICGGLVMLLPETKGIALPETVDDVEKLGSPHSCKCGRNKKTPVSRSHL
notes: expressed in transfected cells; host or cells: HEK293 (HEK-OCT3)
Km [12]: 2.7 ± 0.1 µM
